Results from patent US11103512B2, “Crystalline form of (S)-[2-chloro-4-fluoro-5-(7-morpholin-4-yl-quinazolin-4-yl)phenyl]-(6-methoxy-pyridazin-3-yl)-methanol” (Merck Patent GmbH, priority 2017, dated 2021).
Values after ≈ are worked out from the molar mass of the structure shown.

Legend:
[1] = Water vapour sorption isotherm (DVS, 25° C.); type: physicochemical; settings: for water uptake / hygroscopic behaviour (in words): water vapour sorption isotherm, FIG. 3
Description: Form I can therefore be classified acc. to Ph. Eur. Criteria (section 5.11.) as not hygroscopic. The max. water uptake level (Δmmax at 98% rh) of Form I is <1% m/m. […] This non-hygroscpopic behaviour of Form I is advantageous both in case of using the material as a starting material, as it readily lends itself to storage, as well as using it “as is” in a pharmaceutical dosage form.
• Powder X-ray diffractions (XRPD) were obtained by standard techniques as described in the European Pharmacopeia 7th Edition chapter 2.9.33 (Cu-Kai radiation, λ=1.5406 Å, Stoe StadiP 611 KL transmission diffractometer, ambient temperature); and in particular • For the amorphous form: The XRPD measurement was performed in transmission geometry with Cu-Kα1 radiation on a Stoe StadiP 611 diffractometer equipped with Mythen1K Si-strip detector (PSD). Approximately 5-20 mg of the sample were prepared on a combinatorial 96-well-plate sample holder comprising a mostly amorphous Kapton® foil on the bottom of the wells. Measurement was carried out by setting following parameters: • angular range: −36°−36 °2θ folded to 0-36 °2θ • angular resolution: 0.03 °2θ • PSD step with: 4 °2θ • measurement time: 30 s/PSD-step • generator settings: 40 mA, 40 kV • For the crystalline Form I: The measurement was performed in transmission geometry with Cu-Kα1 radiation on a Stoe StadiP 611 diffractometer equipped with Mythen1K Si-strip detector (PSD). Approximately 10-100 mg of the sample were prepared between amorphous films. Measurement was carried out by setting following parameters: • angular range: 1°-41 °2θ • angular resolution: 0.015 °2θ • PSD step with: 0.49 °2θ • measurement time: 15 s/PSD-step • generator settings: 40 mA, 40 kV • DSC: • For the amorphous form: • Temperature modulated DSC (TOPEM®) was acquired on a Mettler-Toledo heat-flux Differential Scanning Calorimeter DSC 1 system. Approximately 0.5 mg sample amount were weighed accurately in a 40 μl Aluminium pan which was hermetically closed by a lid. The scan was carried out from 0° C. to 250° C. with a linear heating rate of 2 K/min, overlapped by a non-linear puls-modulated temperature programme with a pulse height of ±0.5 K and a stochastic pulse width from 15 s (min) to 45 s (max). Nitrogen purge gas at 50 mL/min was used. • For crystalline Form I: • DSC measurement was acquired on Mettler-Toledo heat-flux Differential Scanning Calorimeter system DSC 821e. Approximately 1-5 mg sample amount were weighed accurately in a 40 μl Aluminium pan with pierced lid. The scan was carried out from 25° C. to 350° C. with a linear heating rate of 5 K/min and a nitrogen purge gas at 50 mL/min. • TGA: • Sample was investigated on a Mettler-Toledo Thermogravimetric Analyser TGA 851 with autosampler, using a nitrogen inert gas atmosphere (flow 50 mL/min). Approximately 5-20 mg sample amount were weighed accurately in a 100 μl Aluminium pan and hermetically closed by Aluminium lids. Just before insertion to the oven the lid was pierced by a needle of the autosampler system. Scans were carried out from 25° C. to 350° C. at 5 K/min. The result was baseline-corrected with a blank run from an empty 100 μl Aluminium pan of the same type, using the identical temperature profile. • Water Vapour Sorption Isotherm: • Approximately 1-40 mg sample amount were weighed accurately into a 100 μl Al pan and hung into the sample position of the DVS instrument with microbalance and incubator (DVS-Intrinsic; Surface Measurement Systems, SMS). […]

[2] = Thermal behaviour by DSC and TGA; type: physicochemical; settings: DSC and TGA profiles
Experimental: By contrast, the amorphous material decomposes at 170° C. (FIG. 2). The crystalline material therefore lends itself to further processing that involves high temperatures, such as hot melt extrusion and melt granulation.
• Powder X-ray diffractions (XRPD) were obtained by standard techniques as described in the European Pharmacopeia 7th Edition chapter 2.9.33 (Cu-Kai radiation, λ=1.5406 Å, Stoe StadiP 611 KL transmission diffractometer, ambient temperature); and in particular • For the amorphous form: The XRPD measurement was performed in transmission geometry with Cu-Kα1 radiation on a Stoe StadiP 611 diffractometer equipped with Mythen1K Si-strip detector (PSD). Approximately 5-20 mg of the sample were prepared on a combinatorial 96-well-plate sample holder comprising a mostly amorphous Kapton® foil on the bottom of the wells. Measurement was carried out by setting following parameters: • angular range: −36°−36 °2θ folded to 0-36 °2θ • angular resolution: 0.03 °2θ • PSD step with: 4 °2θ • measurement time: 30 s/PSD-step • generator settings: 40 mA, 40 kV • For the crystalline Form I: The measurement was performed in transmission geometry with Cu-Kα1 radiation on a Stoe StadiP 611 diffractometer equipped with Mythen1K Si-strip detector (PSD). Approximately 10-100 mg of the sample were prepared between amorphous films. […]

[3] = system: DNA-PK autophosphorylation in cancer cell lines; settings: background statement, no values; cited from earlier work
[4] = molecular target: DNA-dependent protein kinase (DNA-PK) (Homo sapiens, UniProt P78527); settings: background statement, no values; cited from earlier work
[5] = Solubility measurements in biorelevant media (24 h shake, HPLC); type: physicochemical

SMILES | water uptake / hygroscopic behaviour (in words) [1] | water uptake / hygroscopic behaviour (in words) ([1]; listed as amorphous solid form) | melting/decomposition temperature (thermal stability) [2] | inhibition of DNA-PK autophosphorylation (in words) [3] | inhibition of DNA-PK activity (in words) [4] | solubility at 24 h ([5]; FaSSIF (fasted state simulated intestinal fluid), pH 6.5, thermodynamic from solid, FaSSIF, pH of medium 6.5, 37 °C) [µg/mL] | solubility at 24 h ([5]; FeSSIF (fed state simulated intestinal fluid), pH 5, thermodynamic from solid, FeSSIF, pH of medium 5.0, 37 °C) [µg/mL] | solubility at 24 h ([5]; SGF (simulated gastric fluid without pepsin), pH 1.2, simulated gastric fluid, thermodynamic from solid, SGF, pH of medium 1.2, 37 °C) [µg/mL] | max. water uptake level (Δmmax at 98% rh) ([1]; 98% rh, 25° C.) [% m/m] | hygroscopicity classification acc. to Ph. Eur. criteria (section 5.11.) ([1]; dm (80% rh−40% rh), 25° C.) | water uptake levels ([1]; relative humidity range 40-80% rh, 25° C.) [% m/m]
COc1ccc([C@@H](O)c2cc(-c3ncnc4cc(N5CCOCC5)ccc34)c(F)cc2Cl)nn1 [amorphous material, (S)-[2-chloro-4-fluoro-5-(7-morpholin-4-yl-quinazolin-4-yl)phenyl]-(6-methoxy-pyridazin-3-yl)-methanol] | significant water uptake | hygroscopic | 170 °C | – | – | – | – | – | – | – | –
COc1ccc([C@@H](O)c2cc(-c3ncnc4cc(N5CCOCC5)ccc34)c(F)cc2Cl)nn1 [(S)-[2-chloro-4-fluoro-5-(7-morpholin-4-yl-quinazolin-4-yl)phenyl]-(6-methoxy-pyridazin-3-yl)-methanol] | – | – | – | potent inhibition | potent and selective inhibitor | – | – | – | – | – | –
COc1ccc([C@@H](O)c2cc(-c3ncnc4cc(N5CCOCC5)ccc34)c(F)cc2Cl)nn1 [Form I, (S)-[2-chloro-4-fluoro-5-(7-morpholin-4-yl-quinazolin-4-yl)phenyl]-(6-methoxy-pyridazin-3-yl)-methanol] | – | – | above 200 °C | – | – | 3 (≈ 6.23 µM) | 17 ± 1 (≈ 35.3 µM) | 891 ± 33 (≈ 1850 µM) | < 1 | not hygroscopic (dm (80% rh−40% rh)<0.2 wt %: not hygroscopic) | < 1
